From patent US20240285599A1, “Mature-Hepatocyte Transdifferentiation Suppressing Composition” (OSAKA UNIVERSITY, priority 2021, published 2024)

How the values were obtained:
[1] = test system: human cholangiocarcinoma cell line HuCCT1; assay: Cell proliferation assay (IncuCyte) of cholangiocarcinoma cell line HuCCT1; type: cell-based
Description: A human hepatoma cell line HepG2, and human cholangiocarcinoma cell lines HuCCT1, HuCCA1, and KKU213 were obtained from the JCRB Cell Bank. The HepG2 and KKU213 cells were cultured in a Dulbecco's modified Eagle's medium (DMEM; Nacalai Tesque, Inc., Japan) having added thereto 10% heat-inactivated fetal calf serum (FCS; Gibco, USA). The HuCCT1 cells were cultured in an RPMI medium (Nacalai Tesque, Inc., Japan) containing 10% FCS. The HuCCA1 cells were cultured in D-MEM/Ham's F-12 (containing L-glutamine and phenol red) (Wako Pure Chemical Industries, Ltd., Japan) having added thereto 10% FCS. All the cells were cultured with a CO2 incubator at 37° C. The cells were detached with trypsin (Nacalai Tesque, Inc., Japan), and were passaged. Those cells were routinely examined for mycoplasma.
(§1) The transfection of siRNA or a plasmid into cells was performed with Lipofectamine RNAiMAX Transfection Reagent (Thermo Fisher Scientific, Inc., USA) or Lipofectamine 2000 (Thermo Fisher Scientific, Inc., USA), respectively, and with Opti-MEM (Thermo Fisher Scientific, Inc., USA). The transfection of the siRNA was performed as follows: the cells were dispersed at a concentration of 100,000 cells/mL; 10 μM of the siRNA was mixed into 100 μL of the Opti-MEM at a ratio of 1 μL, and the mixture was left at rest for 5 minutes; and then 3 μL of the RNAiMAX was mixed into the mixture, and the whole was left at rest for 15 minutes, followed by administration to the supernatant of the previously dispersed cells. Further, a medium change was performed 24 hours thereafter.
Hepatocytes or cholangiocarcinoma cells were inoculated on a 96-well plate, and their cell proliferation was analyzed with IncuCyte (trademark) Si (Sartorius AG, Germany) in accordance with the manufacturer's instructions.
Two kinds of NIK siRNA (the NIK KD #1 and the NIK KD #2) were introduced into each of human cholangiocarcinoma cell lines HuCCT1, HuCCA1, and KKU213 to knock down MAP3K14 (NIK). […]

[2] = test system: TRAF3/PTEN knockdown primary human hepatocyte (PHH); assay: KRT19 mRNA quantification and immunoblotting (P52) in TRAF3/PTEN knockdown primary human hepatocyte; type: cell-based; conditions: PHH (PTKD #1); for increase in expression of P52 by knockdown of TRAF3 and PTEN: western blot
Description: Human hepatocyte chimeric mice were generated in accordance with the protocol of the previous report (Hasegawa M, et al. Biochem Biophys Res Commun. 2011; 405(3): 405-410). Ganciclovir was administered to each of highly immunocompromised NOG mice (TK-NOG) each having a liver in which a herpes simplex virus type 1 thymidine kinase transgene had been expressed to induce liver injury, followed by the transplantation of human hepatocytes. As described in the previous report (Murai K, et al. Sci Rep. 2020; 10(1): 941), primary human hepatocytes were collected from the human hepatocyte chimeric mice each having a chimeric liver rate of 90% or more by using a two-step collagenase-pronase reflux method. It was recognized by FACS that the human hepatocytes accounted for 90% or more of the collected cells. Those cells were spread on a collagen-coated dish and cultured.
as §1
A procedure for western blotting is as described in the previous report (Tanaka S, et al. Hepatology. 2016; 64(6): 1994-2014). The protein extracts of cells and animal tissues were prepared by using a lysis buffer having added thereto a protease inhibitor (Nacalai Tesque, Inc., Japan) and a phosphatase inhibitor (Nacalai Tesque, Inc., Japan). In western blotting for the detection of NIK, MG-132 (ChemScene, USA) was administered at a concentration of 5 μM 4 hours before protein recovery. The following antibodies were used in immunodetection: TRAF3 (1:1,000 Cell Signaling, #4729), PTEN (1:1,000 Cell Signaling, #9188), KRT19 (1:50,000 Abcam, #ab52625), p100/p52 (1:1,000 Cell Signaling, #4882), NIK (1:1,000 Cell Signaling, #4994), and β-actin (1:10,000 Sigma-Aldrich Co., LLC, #A5316). Anti-mouse IgG, HRP-linked whole Ab sheep (Cytiva, Japan), or anti-rabbit IgG, HRP-linked whole Ab donkey (Cytiva, Japan) was used as a secondary antibody, and luminescence analysis was performed with SuperSignal (trademark) West Pico PLUS Chemiluminescent Substrate (Thermo Fisher Scientific, Inc., USA).
Total RNA was extracted from a cell line and a human liver tissue with RNeasy Mini Kit (QIAGEN N.V., Nederland). Then, 1 μg of the total RNA was reverse-transcribed with ReverTra Ace qPCR RT Kit (Toyobo Co., Ltd., Tokyo) to synthesize complementary DNA. The mRNA expression of each of the following genes was analyzed through use of a TaqMan gene expression assay: human GAPDH (Hs02758991), human TRAF3 (Hs00936781), human PTEN (Hs02621230), human KRT19 (Hs00761767), human NIK (Hs01089753), mouse Gapdh (Mm09999915), mouse Traf3 (Mm00495752), mouse Pten (Mm00477208), mouse Krt19 (Mm00492980), mouse NIK (Mm00444166), and mouse Alb (Mm00802090). The gene expression amount of a human and the gene expression amount of a mouse were normalized to the expression amount of GAPDH.
The effect of TRAF3/PTEN inhibition on the expression of a bile duct marker in each of a primary human hepatocyte (hereinafter also referred to as “PHH”) and a human hepatoma cell line HepG2 cell (hereinafter also referred to as “HepG2”) was evaluated. The PHH and the HepG2 are each a mature hepatocyte having an albumin-producing ability. The TRAF3 and PTEN of each of the HepG2 and the PHH were knocked down with siRNA. […]

[3] = NIK siRNA transfected, 72 h, FIG. 13
[4] = NIK siRNA transfected, cells recovered after 72 h culture, FIG. 13

COc1cc(C(N)=O)nc(-c2cccc(C#C[C@]3(O)CCN(C)C3=O)c2)c1 [NIKSMI, (R)-6-(3-((3-hydroxy-1-methyl-2-oxopyrrolidin-3-yl)ethynyl)phenyl)-4-methoxypicolinamide]
significantly suppressed: proliferation of cholangiocarcinoma cells ([1]; 9 μM or 15 μM added at beginning of culture, FIG. 21A) | increase in expression of KRT19 by knockdown of TRAF3 and PTEN ([2]; NIKSMI 9 μM added 24 h after start of culture, cells recovered 48 h later, FIG. 11) | increase in expression of P52 by knockdown of TRAF3 and PTEN ([2]; NIKSMI 9 μM, 48 h, FIG. 11)

NIK KD #1: siRNA of NIK, SEQ ID NO: 2 (sense) and 3 (antisense), from Thermo Fisher Scientific (sense CAAACGCAAAGAGCAAGAAUU; antisense UUCUUGCUCUUUGCGUUUGCA; listed as RNA, chemistry not given here)
significantly suppressed: proliferation of cholangiocarcinoma cells ([1]; NIK siRNA introduced, FIG. 18) | increase in expression of P52 by knockdown of TRAF3 and PTEN [2, 3] | increase in expression of KRT19 by knockdown of TRAF3 and PTEN [2, 4]

NIK KD #2: siRNA of NIK, SEQ ID NO: 4 (sense) and 5 (antisense), from Thermo Fisher Scientific (sense GCAAAGAGCAAGAACCAAAUU; antisense UUUGGUUCUUGCUCUUUGCGU; listed as RNA, chemistry not given here)
significantly suppressed: proliferation of cholangiocarcinoma cells ([1]; NIK siRNA introduced, FIG. 18) | increase in expression of P52 by knockdown of TRAF3 and PTEN [2, 3] | increase in expression of KRT19 by knockdown of TRAF3 and PTEN [2, 4]
